# Experimental data: patent US20250197453A1, “COMPOSITION COMPRISING TAT PEPTIDE VARIANT AS ACTIVE INGREDIENT FOR PREVENTING OR TREATING METABOLIC DISEASES” (priority 2021, published 2025)
# Tested on: 3T3-L1 cells
# Experiment: PEGn-TAT variants: inhibition of differentiation of 3T3-L1 cells and of fatty acid synthesis
# Assay type: cell-based
# Description: 3T3-L1 cells were cultured in DMEM (high glucose, pyruvate, GIBCO CAT #11995) supplemented with 10% calf serum and 1% penicillin-streptomycin (P/S). Cells were seeded in a 6-well culture plate, and when the cells reached a confluency of 60 to 70%, MDI, a differentiation initiation medium, was added at a 1× concentration. At this time, the cells were treated with each of TAT-38, X-FAT8, and PEGn-TAT at a concentration of 1 to 10 μM. After 2 days, MDI was replaced with insulin, and each of AT-38, X-FAT8, and PEGn-TAT was added to fresh medium every day during culture. From day 4, culture was continued for 4 days in maintenance medium. Thereafter, the cell status was checked and recorded every day. When necessary, the cells were fixed and the amount of fatty acids was analyzed by Oil-O red staining.
substance,measurement,setting,value
TACTNCYCAKCCFHCQVC-(Peg)7-RAKRRQRRR [PEG7-TAT],"differentiation inhibitory ability and intracellular lipid accumulation, 3T3-L1 cells",4 days (FIG. 12A) and 6 days (FIG. 12B) after the initiation of differentiation,very high
same,"differentiation inhibitory ability and intracellular lipid accumulation, 3T3-L1 cells","4 days after the initiation of differentiation, FIG. 11A",very high
same,"differentiation inhibitory ability, 3T3-L1 cells","6 days after the induction of differentiation, FIG. 11B",still significant
same,"differentiation and intracellular lipid accumulation, 3T3-L1 cells, Oil-O-Red staining","8 days after the initiation of differentiation, FIG. 13",strong inhibition of differentiation and inhibition of intracellular lipid accumulation
